Results on 13 molecules are retold here after ChEMBL document CHEMBL1201862, “PubChem BioAssay data set” (2004).

Test systems include CCRF-CEM; HCC 2998; HCT-15; HT-29; KM12; MOLT-4; NCI-H522; OVCAR-3; OVCAR-5; RPMI-8226; SF-268; SF-539; SK-MEL-28; SN12C; SNB-19; UO-31.
Test in all cases: NCI anticancer screen, dose series, 48 h

Molecules are shown by their SMILES.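 Growth conditions: 96-well plates. Treatment: test compound, 48 hours, 5 concentrations. Analysis: linear interpolation between bracketing concentrations; unreached endpoints set to highest concentration. At the GI50, growth is halved.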 Active and inactive are the calls of the source. Rule as the data show it: active = GI50 up to about 1.1 µM and inactive = higher.

Take `O=C1CCCCC1S(=O)(=O)c1ccccc1` (configuration not stated): the GI50 was > 100 µM (inactive) in the experiment with CCRF-CEM; > 100 µM (inactive) in the experiment with HCC 2998; > 100 µM with HCT-15; > 100 µM (inactive) in the experiment on HT-29; > 100 µM (inactive) with KM12; > 100 µM (inactive) in the experiment on MOLT-4. The GI50 with NCI-H522, in the experiment on OVCAR-3, in the experiment with OVCAR-5, with RPMI-8226, in the experiment with SF-268 and with SF-539 was > 100 µM (inactive) in each case. The GI50 with SK-MEL-28, in the experiment on SN12C, with SNB-19 and in the experiment on UO-31 was > 100 µM (inactive) throughout.
As for `Cc1ccc(S(=O)(=O)NC(=O)NC23CC4CC(CC(F)(C4)C2)C3)cc1`, the GI50 in the experiment on CCRF-CEM, with HCC 2998, with HT-29, with KM12, in the experiment with MOLT-4 and with NCI-H522 was > 100 µM (inactive) in each case. Further, the GI50 in the experiment with OVCAR-3, with OVCAR-5, with RPMI-8226, with SF-539, in the experiment on SK-MEL-28 and with SNB-19 was > 100 µM (inactive) in each case. Further, in the experiment with UO-31, the GI50 is > 100 µM (inactive).
Consider `O=C1[C@H]2ON(c3ccccc3)C(c3ccc(Cl)cc3Cl)[C@H]2C(=O)N1c1ccc(Cc2ccc(N3C(=O)[C@@H]4ON(c5ccccc5)C(c5ccc(Cl)cc5Cl)[C@@H]4C3=O)cc2)cc1` (some centres not stated), for which the GI50 in the experiment on CCRF-CEM was > 100 µM (inactive); in the experiment with HCC 2998, > 100 µM (inactive); in the experiment with HCT-15, > 100 µM; in the experiment with HT-29, > 100 µM (inactive); in the experiment on KM12 it was > 100 µM (inactive); with MOLT-4, > 100 µM (inactive). Further, the GI50 in the experiment on NCI-H522, in the experiment on OVCAR-3, in the experiment on OVCAR-5, with RPMI-8226, in the experiment on SF-268 and with SF-539 was > 100 µM (inactive) throughout. Moreover, the GI50 in the experiment with SK-MEL-28, with SN12C, with SNB-19 and in the experiment with UO-31 was > 100 µM (inactive) throughout.
In the case of `COC(=O)C(C(=O)C(=O)Nc1ccc(OC)cc1[N+](=O)[O-])c1nc2cc(C)c(C)cc2nc1O` (configuration not stated), the GI50 in the experiment with CCRF-CEM was > 100 µM (inactive); in the experiment with HCC 2998 it was > 100 µM (inactive); in the experiment on HCT-15 it was > 100 µM; with HT-29, > 100 µM (inactive); in the experiment with NCI-H522, > 100 µM (inactive); in the experiment with OVCAR-3, > 100 µM (inactive). The GI50 with SF-268, in the experiment on SF-539, in the experiment with SK-MEL-28, in the experiment with SN12C, with SNB-19 and in the experiment on UO-31 was > 100 µM (inactive) each time.
In the case of `O=C(c1ccc(Cl)cc1)c1ccc(OCCCOc2ccc(C(=O)c3ccc(Cl)cc3)cc2Cl)c(Cl)c1`, the GI50 was > 100 µM (inactive) with CCRF-CEM; > 100 µM (inactive) in the experiment on HCC 2998; > 100 µM in the experiment with HCT-15; > 100 µM (inactive) with HT-29; > 100 µM (inactive) with KM12; > 100 µM (inactive) with MOLT-4. The GI50 with NCI-H522, in the experiment with OVCAR-3, in the experiment with OVCAR-5, in the experiment with RPMI-8226, in the experiment on SF-539 and in the experiment on SK-MEL-28 was > 100 µM (inactive) in each case. Also, the GI50 with SN12C and with SNB-19 was > 100 µM (inactive) in each case.
Turning to `CC(=O)COC(=O)CC(C)=O`, the GI50 is > 100 µM (inactive) in the experiment with CCRF-CEM; > 100 µM (inactive) in the experiment with HCC 2998; > 100 µM in the experiment on HCT-15; > 100 µM (inactive) in the experiment on HT-29; > 100 µM (inactive) in the experiment on KM12; > 100 µM (inactive) in the experiment with MOLT-4. The GI50 in the experiment on NCI-H522, in the experiment with OVCAR-3, in the experiment with OVCAR-5, with RPMI-8226, with SF-268 and in the experiment on SF-539 was > 100 µM (inactive) each time. Also, the GI50 in the experiment with SK-MEL-28, in the experiment with SN12C, in the experiment with SNB-19 and in the experiment with UO-31 was > 100 µM (inactive) each time.
Consider `CSc1n[n+]2c(s1)SCCC2`, for which the GI50 was > 100 µM (inactive) in the experiment with CCRF-CEM; > 100 µM (inactive) with HCC 2998; > 100 µM (inactive) in the experiment on HT-29; 44.7 µM (inactive) with KM12; > 100 µM (inactive) in the experiment with MOLT-4; 26.9 µM (inactive) in the experiment on NCI-H522. Moreover, the GI50 in the experiment with OVCAR-3 is > 100 µM (inactive); with OVCAR-5 it was > 100 µM (inactive); in the experiment with SF-268, 80.2 µM (inactive); in the experiment with SF-539 it was > 100 µM (inactive); in the experiment on SK-MEL-28 it was > 100 µM (inactive); in the experiment with SN12C it was > 100 µM (inactive). The values for the GI50 with SNB-19 and with UO-31 were > 100 µM (inactive) and 19.8 µM (inactive), respectively.
For the molecule `NS(=O)(=O)c1ccc(Nc2c3ccccc3nc3c(C(=O)N4CCN(CCO)CC4)cccc23)cc1`, the GI50 with CCRF-CEM was 95.3 µM (inactive); in the experiment on HCC 2998, > 100 µM (inactive); in the experiment on HCT-15 it was > 100 µM; in the experiment with HT-29 it was 71.8 µM (inactive); with KM12 it was 93.5 µM (inactive); in the experiment with MOLT-4, 40.2 µM (inactive). The GI50 in the experiment on NCI-H522 is 80.9 µM (inactive); with OVCAR-3, > 100 µM (inactive); in the experiment on OVCAR-5 it was > 100 µM (inactive); in the experiment on SF-268 it was > 100 µM (inactive); in the experiment on SF-539, > 100 µM (inactive); in the experiment on SK-MEL-28 it was > 100 µM (inactive). Further, the GI50 in the experiment on SN12C, in the experiment on SNB-19 and in the experiment on UO-31 was > 100 µM (inactive) each time.
`CN(CCc1ccccn1)/[N+]([O-])=N/O.CNCCc1ccccn1`: the GI50 was > 100 µM (inactive) in the experiment with CCRF-CEM; > 100 µM (inactive) in the experiment on HCC 2998; > 100 µM in the experiment with HCT-15; > 100 µM (inactive) in the experiment with HT-29; > 100 µM (inactive) with KM12; > 100 µM (inactive) with MOLT-4. Also, the GI50 in the experiment on OVCAR-3, in the experiment with OVCAR-5, in the experiment with RPMI-8226, with SF-268, in the experiment with SF-539 and in the experiment on SK-MEL-28 was > 100 µM (inactive) in each case. Also, the GI50 in the experiment on SN12C, in the experiment with SNB-19 and in the experiment on UO-31 was > 100 µM (inactive) each time.
Take `Cc1cc2oc(=O)[nH]c(=S)c2c(C)c1C`: the GI50 is > 100 µM (inactive) with CCRF-CEM; > 100 µM (inactive) with HCC 2998; > 100 µM with HCT-15; > 100 µM (inactive) in the experiment with HT-29; > 100 µM (inactive) with KM12; > 100 µM (inactive) with MOLT-4. In addition, the GI50 in the experiment with NCI-H522, with OVCAR-3, in the experiment on RPMI-8226, in the experiment with SF-268, in the experiment with SF-539 and in the experiment with SK-MEL-28 was > 100 µM (inactive) in each case. Further, the GI50 with SN12C, with SNB-19 and with UO-31 was > 100 µM (inactive) in each case.
As for `COc1cc2c(cc1OC)[C@H]1C(COC(=O)Nc3ccccc3)CN1CC2` (some centres not stated), the GI50 in the experiment on CCRF-CEM was > 100 µM (inactive); with HCC 2998, 67.6 µM (inactive); with HCT-15, > 100 µM; in the experiment with HT-29, 74.5 µM (inactive); in the experiment with KM12 it was > 100 µM (inactive); with MOLT-4, 95.5 µM (inactive). Further, the GI50 in the experiment on NCI-H522, in the experiment with OVCAR-3, with OVCAR-5, in the experiment with RPMI-8226, with SF-268 and in the experiment on SF-539 was > 100 µM (inactive) in each case. The GI50 in the experiment on SK-MEL-28, in the experiment on SN12C, with SNB-19 and in the experiment with UO-31 was > 100 µM (inactive) each time.
Turning to `CCCCCCCCCCCCCCCCOCC(CN(C)CCN(C)C)OCCCCCCCCCCCCCCCC` (configuration not stated), the GI50 with CCRF-CEM is > 100 µM (inactive); with HCC 2998 it was > 100 µM (inactive); with HCT-15, > 100 µM; in the experiment on HT-29, > 100 µM (inactive); in the experiment on KM12, > 100 µM (inactive); in the experiment with MOLT-4 it was > 100 µM (inactive). Also, the GI50 in the experiment on NCI-H522, in the experiment on OVCAR-3, in the experiment with OVCAR-5, in the experiment on RPMI-8226, in the experiment on SF-268 and with SK-MEL-28 was > 100 µM (inactive) in each case. For the same molecule, the GI50 in the experiment on SN12C, with SNB-19 and with UO-31 was > 100 µM (inactive) in each case.
Turning to `C=C(C)C1Cc2c(cc(OC)c3c(=O)c4ccccc4n(C)c23)O1` (configuration not stated), the GI50 in the experiment on CCRF-CEM is > 100 µM (inactive); in the experiment on HCC 2998 it was > 100 µM (inactive); in the experiment with HCT-15, 83.6 µM; in the experiment on HT-29, > 100 µM (inactive); in the experiment on KM12, > 100 µM (inactive); with NCI-H522, 18.3 µM (inactive). For the same molecule, the GI50 in the experiment on OVCAR-3 was > 100 µM (inactive); with OVCAR-5 it was > 100 µM (inactive); in the experiment on RPMI-8226, > 100 µM (inactive); in the experiment on SF-268, > 100 µM (inactive); in the experiment on SF-539, > 100 µM (inactive); in the experiment with SK-MEL-28, 49 µM (inactive). Further, the GI50 in the experiment on SN12C, in the experiment on SNB-19 and with UO-31 was > 100 µM (inactive) each time.
